In PubChem BioAssay AID2286 (Southern Research Specialized Biocontainment Screening …, 2010):
Active and inactive are the calls of the source.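 How the source made its calls: active means minimum cell viability of 80% or lower across the dose range, counted as toxic; inactive means minimum cell viability above 80%.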

Columns and labels:
[1] = system: MAGI-CCR5 cells viability, CellTiter-Glo ATP luminescence; test: MAGI-CCR5 and HeLa-R5-16 cytotoxicity, dose response, cytotoxicity control for HIV-1 fusion inhibitor project, cell-based, MAGI and MAGI-HeLa co-culture (AID 2286);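 further: cells exposed to compound for at least 64 h before ATP readout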;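 on minimum viability: 100% = median of DMSO vehicle wells with no ATP signal meaning 0%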;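 on viability: 100% = median of DMSO vehicle wells with no ATP signal meaning 0%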
[2] = as above; conditions: MAGI-CCR5 cells viability, CellTiter-Glo ATP luminescence; for minimum viability: measured here: MAGI minimum viability across doses
[3] = measured here: MAGI + HeLa-R5-16 co-culture viability
[4] = MAGI-HeLa co-culture viability, at 50 µM, stronger effect = lower value
[5] = at 3.13 µM, stronger effect = lower value
[6] = at 12.5 µM, stronger effect = lower value

Row | Compound | CC50 [1] | CC50 [1, 3] | viability [2, 4] | minimum viability ([2]; at 50 µM, stronger effect = lower value) | viability ([2]; at 50 µM (top of the series)) | further results
1 | O=C(N/N=C/c1ccc(-c2ccc(S(=O)(=O)Nc3ncccn3)cc2)o1)c1cc2ccccc2cc1O | 15.8 µM | 32.6 µM | 30.7% | 16.4% | – | –
2 | Cc1cc(Cl)ccc1OC(C)C(=O)Nc1ccc(C(=O)Nc2ccccc2C(=O)O)cc1 (centres undefined) | 48.8 µM | > 50 µM | 63.6% | 49.8% | – | –
3 | COc1ccc(C(=O)/C=C/c2cccc(OCc3ccccc3)c2)cc1CSCC(=O)O | 28.5 µM | 46.4 µM | 13.8% | 5.22% | – | –
4 | O=C(O)CCCCCN1C(=O)/C(=C\c2cn(-c3ccccc3)nc2-c2cccs2)SC1=S | 44.3 µM | > 50 µM | 54.7% | 47.2% | – | –
5 | O=C(O)C1Nc2ccc(Br)cc2C2C=CCC12 (centres undefined) | – | > 50 µM | 74.1% | – | 98% (inactive) | minimum viability ([2]; at 0.2 µM, stronger effect = lower value): 90.6%
6 | COc1ccc(-c2csc(NC(=O)c3ccccc3NS(=O)(=O)c3ccc(C)cc3)n2)cc1 | 4.93 µM | 10.9 µM | 24.4% | 20% | – | –
7 | O=C(O)c1ccc(N2C(=O)/C(=C/c3ccc(-c4ccc([N+](=O)[O-])cc4)o3)C=C2c2ccccc2)cc1 | 35.4 µM | > 50 µM | 65.7% | – | – | minimum viability ([2]; at 25 µM, stronger effect = lower value): 46.8%
8 | O=C(O)CN1C(=O)/C(=C\c2cc(Br)ccc2OCc2ccc(Cl)cc2)SC1=S | – | 48.6 µM | 52.4% | 90.5% | 90.5% (inactive) | –
9 | CC1(c2ccccc2)CC(C)(C)N2C(=O)/C(=C3\SC(=S)NC3=O)c3cccc1c32 (centres undefined) | 14.1 µM | 37 µM | 40.9% | 22.5% | – | –
10 | CCOc1cc(/C=C2/C(=N)N3C(=NC2=O)SN=C3S(C)(=O)=O)ccc1OS(=O)(=O)c1ccccc1 | – | > 50 µM | 68.9% | 81.5% | 81.5% (inactive) | –
11 | O=C(NN1C(=O)/C(=C\c2ccc(O)c([N+](=O)[O-])c2)SC1=S)c1ccccc1Cl | – | > 50 µM | 69.9% | 62.8% | – | –
12 | O=C(OCC1OC(n2ncc(=O)[nH]c2=O)C(OC(=O)c2ccccc2)C1OC(=O)c1ccccc1)c1ccccc1 (centres undefined) | 42.2 µM | – | 111% | 44% | – | –
13 | COc1ccc(/C=C2/SC(=S)N(CC(=O)O)C2=O)cc1OCc1ccc(Cl)cc1 | – | > 50 µM | 67% | – | 104% (inactive) | minimum viability [2, 5]: 85.8%
14 | CCOC(=O)c1sc2nc3c(SCCC(=O)O)cc(C(=O)c4cc(OC)ccc4O)cn3c(=O)c2c1C | – | > 50 µM | 65.6% | 68.7% | – | –
15 | COc1cc(/C=C2\SC(=O)N(Cc3ccc(Cl)cc3)C2=O)cc([N+](=O)[O-])c1O | 20.8 µM | > 50 µM | 72.8% | 38.6% | – | –
16 | CCCCCC(=O)Cc1cc(O)cc2c1C(=O)Oc1cc(O)c(C(=O)O)c(CCCCC)c1O2 | 43.3 µM | 46.7 µM | 46.4% | 39.1% | – | –
17 | CCS(=O)(=O)C1=NN2C(=N)/C(=C\c3ccc(OCCOc4cccc(OC)c4)c(OC)c3)C(=O)N=C2S1 | – | 40.1 µM | 50% | 83.7% | 83.7% (inactive) | –
18 | O=C(Nc1ccc(Oc2ccc(Cl)cc2)c(Cl)c1)c1cc(I)cc(I)c1O | 13.6 µM | 25.2 µM | 11.8% | 10.4% | – | –
19 | CC(C)(C)c1ccc(OCC(=O)NNC(=S)NC(=O)c2ccccc2[N+](=O)[O-])c(Br)c1 | – | > 50 µM | 67.6% | 71% | – | –
20 | O=C1/C(=C\c2ccc(O)c(O)c2)C(c2ccccc2)=NN1c1ccccc1 | 38.4 µM | 48.7 µM | 34.7% | 28.1% | – | –

Row | Compound | CC50 [1] | CC50 [1, 3] | viability [2, 4] | minimum viability ([2]; at 50 µM, stronger effect = lower value) | viability ([2]; at 50 µM (top of the series)) | further results
21 | CCOc1cc(/C=C2\C(=N)N3N=C(S(C)(=O)=O)SC3=NC2=O)ccc1OCCOc1cccc(OC)c1 | – | 43.2 µM | 47.3% | 78% | – | –
22 | COc1cc(/C=C2/SC(=S)NC2=O)ccc1OS(=O)(=O)c1ccc(C)cc1 | 12 µM | 28.9 µM | 28.8% | 21.6% | – | –
23 | O=C(O)c1ccc(N/N=C/c2ccc(-c3cccc(Cl)c3)o2)cc1 | 10.3 µM | 2.83 µM | 10.1% | 21.6% | – | –
24 | CCOc1cc(/C=C2\C(=O)N(c3cccc(C(=O)O)c3)N=C2C(F)(F)F)ccc1OCC(=O)Nc1ccccc1OC | – | 47.3 µM | 51.6% | – | – | viability ([2]; at 25 µM (top of the series)): 88.7% (inactive); minimum viability ([2]; at 6.25 µM, stronger effect = lower value): 85.3%
25 | O=C(N/N=C/c1cc(Cl)cc([N+](=O)[O-])c1O)NC12CC3CC(CC(C3)C1)C2 | 48.7 µM | > 50 µM | 55.7% | 49.2% | – | –
26 | O=[N+]([O-])c1cc([N+](=O)[O-])c2oc(-c3ccccc3)c(Br)c2c1O | 22.5 µM | > 50 µM | 57.6% | 34.5% | – | –
27 | COc1cc(/C=C2/SC(=S)N(Cc3ccccc3)C2=O)ccc1OCC(=O)O | 30.2 µM | > 50 µM | 79% | 4.94% | – | –
28 | C=CC#CC[N+]1(CC#Cc2ccccc2)CCOCC1 | – | > 50 µM | 70% | 76.2% | – | –
29 | CCCOc1cccc(C2C(C(=O)c3cc4ccccc4o3)=C(O)C(=O)N2c2cc(C)on2)c1 (centres undefined) | 49.8 µM | – | 90.1% | 49.1% | – | –
30 | COc1ccc(-c2nn(-c3ccccc3)cc2/C=C2/SC(=S)N(CCCC(=O)O)C2=O)c(C)c1 | – | > 50 µM | 68.8% | 57% | – | –
31 | O=C1NN(c2ccc(Cl)cc2)C(=O)/C1=C\c1ccc(-c2cccc(C(=O)O)c2)o1 | – | – | 81.8% | 83.3% | 83.3% (inactive) | –
32 | CC(c1ccccc1)N1C(=O)c2ccc(C(=O)Nc3ccc(Br)cc3C(=O)O)cc2C1=O (centres undefined) | – | – | 118% | – | 96.8% (inactive) | minimum viability [2, 5]: 86.6%
33 | Cc1cc(/C=c2\sc3nc4ccccc4n3c2=O)c(C)n1-c1ccc(C(=O)O)cc1 | – | – | 89% | 59.4% | – | –
34 | CCc1nnc(NS(=O)(=O)c2ccc(NC(=S)NC(=O)/C=C/c3ccc(F)cc3)cc2)s1 | – | – | 115% | – | 89.6% (inactive) | minimum viability [2, 6]: 83.8%
35 | CCOc1ccc(C2C(C(=O)Nc3ccccc3)=C(C)N=c3s/c(=C/c4cccc(OCC(=O)O)c4)c(=O)n32)cc1 (centres undefined) | – | – | 94.8% | – | 96.2% (inactive) | minimum viability ([2]; at 1.56 µM, stronger effect = lower value): 87.8%
36 | COc1cccc(-c2nc(SCC(=O)Nc3nc(-c4ccccc4)c(C)s3)[nH]c(=O)c2C#N)c1 | – | – | 116% | 87.6% | 87.6% (inactive) | –
37 | Cc1ccc(/C=C2\SC(=S)N(CCCC(=O)Nc3ccccc3C(=O)O)C2=O)cc1 | – | – | 127% | 63.9% | – | –
38 | Cc1cc(Cl)ccc1OC(C)C(=O)Nc1ccc(S(=O)(=O)Nc2cnc3ccccc3n2)cc1 (centres undefined) | – | – | 89.2% | 72.9% | – | –
39 | O=C(O)c1[nH]c2ccccc2c1C(c1ccccc1)c1c(C(=O)O)[nH]c2ccccc12 | – | – | 93.2% | – | 86% (inactive) | minimum viability [2, 6]: 81.8%
40 | O=C(O)CN1C(=O)/C(=C\c2cc(Br)ccc2OCc2ccccc2F)SC1=S | – | – | 113% | 101% | 101% (inactive) | –
